Here are results for 7 compounds from ChEMBL document CHEMBL2016457, “Discovery of potent and orally bioavailable 17β-hydroxysteroid dehydrogenase type 3 inhibitors” (Bioorg Med Chem, 2012).

Active and inactive are the calls of the source.

Data set [1] has as its target T1, 17-beta-hydroxysteroid dehydrogenase type 1 (Homo sapiens) (UniProt P14061).
T1 sequence (whole entry): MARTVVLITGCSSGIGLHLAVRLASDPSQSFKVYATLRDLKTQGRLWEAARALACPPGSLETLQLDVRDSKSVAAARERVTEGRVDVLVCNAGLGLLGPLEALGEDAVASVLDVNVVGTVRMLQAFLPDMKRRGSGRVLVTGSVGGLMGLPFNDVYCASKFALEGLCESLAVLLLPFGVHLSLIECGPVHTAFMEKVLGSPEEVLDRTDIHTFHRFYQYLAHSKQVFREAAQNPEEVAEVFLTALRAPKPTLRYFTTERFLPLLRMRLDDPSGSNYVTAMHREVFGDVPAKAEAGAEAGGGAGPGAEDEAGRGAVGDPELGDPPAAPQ
In words: Inhibition of human recombinant 17-beta-HSD1 expressed in human HeLa cells using estrone as substrate preincubated for 30 mins prior substrate addition measured after 120 mins by spectrophotometry. The format is cell-based.

The target of data set [2] is T2, 17-beta-hydroxysteroid dehydrogenase type 2 (Homo sapiens) (UniProt P37059).
T2 sequence (whole entry): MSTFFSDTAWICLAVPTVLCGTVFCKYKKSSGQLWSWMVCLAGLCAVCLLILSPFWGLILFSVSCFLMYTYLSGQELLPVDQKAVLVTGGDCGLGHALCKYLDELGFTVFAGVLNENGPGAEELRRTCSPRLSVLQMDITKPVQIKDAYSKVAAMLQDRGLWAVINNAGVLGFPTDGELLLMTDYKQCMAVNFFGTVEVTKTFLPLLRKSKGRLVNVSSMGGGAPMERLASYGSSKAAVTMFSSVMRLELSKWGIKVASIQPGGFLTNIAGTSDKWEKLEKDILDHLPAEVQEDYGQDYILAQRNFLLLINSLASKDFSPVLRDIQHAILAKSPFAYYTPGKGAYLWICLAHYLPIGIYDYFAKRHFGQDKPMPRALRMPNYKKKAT
In words: Inhibition of human recombinant 17-beta-HSD2 expressed in human HeLa cells using estradiol as substrate preincubated for 30 mins prior substrate addition measured after 120 mins by spectrophotometry. The format is cell-based.

In data set [3] the target is T3, Androgen receptor (Homo sapiens) (UniProt P10275).
T3 sequence (whole entry): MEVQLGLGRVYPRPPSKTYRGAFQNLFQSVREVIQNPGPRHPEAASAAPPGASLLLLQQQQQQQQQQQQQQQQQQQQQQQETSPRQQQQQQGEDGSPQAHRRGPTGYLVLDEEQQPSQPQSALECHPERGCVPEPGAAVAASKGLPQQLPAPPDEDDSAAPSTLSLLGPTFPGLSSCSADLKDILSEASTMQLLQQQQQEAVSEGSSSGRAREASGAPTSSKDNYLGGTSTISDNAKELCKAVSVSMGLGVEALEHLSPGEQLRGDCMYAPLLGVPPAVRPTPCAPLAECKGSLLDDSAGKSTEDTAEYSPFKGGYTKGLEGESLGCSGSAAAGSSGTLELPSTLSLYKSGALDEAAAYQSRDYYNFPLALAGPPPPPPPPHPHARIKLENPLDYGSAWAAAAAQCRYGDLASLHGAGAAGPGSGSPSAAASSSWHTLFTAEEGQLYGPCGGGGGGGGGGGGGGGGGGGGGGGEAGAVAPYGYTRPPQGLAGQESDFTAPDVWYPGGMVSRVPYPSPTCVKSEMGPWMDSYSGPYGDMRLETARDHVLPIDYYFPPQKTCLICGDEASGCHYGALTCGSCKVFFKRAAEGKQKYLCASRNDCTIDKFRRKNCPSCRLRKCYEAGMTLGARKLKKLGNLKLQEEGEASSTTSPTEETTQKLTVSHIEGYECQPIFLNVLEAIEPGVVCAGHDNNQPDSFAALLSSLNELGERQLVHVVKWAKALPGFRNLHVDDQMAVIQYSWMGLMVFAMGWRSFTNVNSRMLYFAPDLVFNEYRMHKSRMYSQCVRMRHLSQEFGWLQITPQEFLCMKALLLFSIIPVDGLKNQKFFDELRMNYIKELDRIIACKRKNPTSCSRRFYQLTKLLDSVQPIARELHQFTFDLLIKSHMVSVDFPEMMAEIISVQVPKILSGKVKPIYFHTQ
In words: Agonist activity at human androgen receptor expressed in human HeLa cells assessed as DHT-induced response after 40 hrs by luciferase/beta-galactosidase-based reporter gene assay. The format is functional, cell-based. Background: Reporter assays use an easily measured gene product as a stand-in for the process of interest.

For data set [4], the target named is T4, Estrogen receptor (Homo sapiens) (UniProt P03372).
T4 sequence (whole entry): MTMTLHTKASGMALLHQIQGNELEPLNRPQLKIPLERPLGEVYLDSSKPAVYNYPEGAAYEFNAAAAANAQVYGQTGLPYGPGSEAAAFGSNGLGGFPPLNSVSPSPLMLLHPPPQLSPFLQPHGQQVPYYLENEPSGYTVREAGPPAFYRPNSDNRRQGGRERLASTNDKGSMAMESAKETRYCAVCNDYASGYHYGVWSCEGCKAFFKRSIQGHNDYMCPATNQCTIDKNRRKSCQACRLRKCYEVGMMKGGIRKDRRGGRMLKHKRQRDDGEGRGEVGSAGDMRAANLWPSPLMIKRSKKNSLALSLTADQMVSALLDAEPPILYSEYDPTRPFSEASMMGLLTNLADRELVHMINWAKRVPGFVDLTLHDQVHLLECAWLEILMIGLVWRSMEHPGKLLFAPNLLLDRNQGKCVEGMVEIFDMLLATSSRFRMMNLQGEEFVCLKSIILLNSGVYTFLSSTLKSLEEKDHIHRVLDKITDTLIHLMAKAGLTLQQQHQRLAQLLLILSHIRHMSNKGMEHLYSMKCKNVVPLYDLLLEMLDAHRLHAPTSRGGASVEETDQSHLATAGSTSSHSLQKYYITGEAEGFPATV
Put plainly: Agonist activity at human Estrogen receptor ERalpha expressed in human HeLa cells assessed as DHT-induced response after 40 hrs by luciferase/beta-galactosidase-based reporter gene assay. The format is functional, cell-based.

The target of data set [5] is T5, Glucocorticoid receptor (Homo sapiens) (UniProt P04150).
T5 sequence (whole entry): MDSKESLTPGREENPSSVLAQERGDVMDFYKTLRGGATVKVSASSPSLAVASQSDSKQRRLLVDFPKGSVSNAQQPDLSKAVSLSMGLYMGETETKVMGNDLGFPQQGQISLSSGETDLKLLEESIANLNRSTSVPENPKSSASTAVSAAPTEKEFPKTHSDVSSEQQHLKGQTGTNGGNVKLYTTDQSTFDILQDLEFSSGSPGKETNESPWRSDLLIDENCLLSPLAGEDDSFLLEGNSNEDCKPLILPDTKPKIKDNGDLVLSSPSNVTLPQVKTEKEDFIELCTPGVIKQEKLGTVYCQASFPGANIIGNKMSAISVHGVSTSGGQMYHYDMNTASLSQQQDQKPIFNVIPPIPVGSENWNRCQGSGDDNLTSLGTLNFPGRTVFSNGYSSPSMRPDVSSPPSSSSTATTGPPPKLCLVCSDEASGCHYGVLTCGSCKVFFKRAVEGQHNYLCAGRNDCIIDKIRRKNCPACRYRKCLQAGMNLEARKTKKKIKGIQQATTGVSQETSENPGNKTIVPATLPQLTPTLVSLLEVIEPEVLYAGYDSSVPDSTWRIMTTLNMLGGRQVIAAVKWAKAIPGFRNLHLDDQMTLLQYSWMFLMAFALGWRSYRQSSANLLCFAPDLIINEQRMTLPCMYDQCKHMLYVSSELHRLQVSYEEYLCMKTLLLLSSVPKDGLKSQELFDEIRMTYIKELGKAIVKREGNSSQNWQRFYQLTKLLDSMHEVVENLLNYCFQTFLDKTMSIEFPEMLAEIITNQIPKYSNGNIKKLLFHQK
Put plainly: Agonist activity at human Glucocorticoid receptor expressed in human HeLa cells assessed as DHT-induced response after 40 hrs by luciferase/beta-galactosidase-based reporter gene assay. The format is functional, cell-based.

In data set [6] the target is T3, Androgen receptor (Homo sapiens). In words: Antagonist activity at human androgen receptor expressed in human HeLa cells assessed as inhibition of DHT-induced response after 40 hrs by luciferase/beta-galactosidase-based reporter gene assay. The format is functional, cell-based.
The target in data set [7] is T4, Estrogen receptor (Homo sapiens). Put plainly: Antagonist activity at human ERalpha receptor expressed in human HeLa cells assessed as inhibition of DHT-induced response after 40 hrs by luciferase/beta-galactosidase-based reporter gene assay. The format is functional, cell-based.
In data set [8] the target is T5, Glucocorticoid receptor (Homo sapiens). Put plainly: Antagonist activity at human GR receptor expressed in human HeLa cells assessed as inhibition of DHT-induced response after 40 hrs by luciferase/beta-galactosidase-based reporter gene assay. The format is functional, cell-based.
Data set [9] has as its target T6, 17-beta-hydroxysteroid dehydrogenase type 3 (Homo sapiens, UniProt P37058).
T6 sequence (P37058 whole entry): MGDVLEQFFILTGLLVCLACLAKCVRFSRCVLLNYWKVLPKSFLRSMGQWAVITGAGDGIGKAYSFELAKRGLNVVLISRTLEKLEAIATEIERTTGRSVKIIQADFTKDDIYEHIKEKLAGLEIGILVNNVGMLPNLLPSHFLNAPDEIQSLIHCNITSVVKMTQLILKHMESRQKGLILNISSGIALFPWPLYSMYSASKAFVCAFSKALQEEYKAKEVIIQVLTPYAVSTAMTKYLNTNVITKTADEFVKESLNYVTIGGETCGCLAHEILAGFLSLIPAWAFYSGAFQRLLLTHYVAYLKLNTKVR
The following applies: hela.
Description: Inhibition of human recombinant 17-beta-HSD3 expressed in human HeLa cells using androstenedione as substrate preincubated for 30 mins prior substrate addition measured after 120 mins by spectrophotometry

Another data set concerns Rattus norvegicus. In words: Inhibition of LH-RH agonist leuprorelin-induced testosterone steroidogenesis in Sprague-Dawley rat at 20 mg/kg, po administered 1 hr prior leuprorelin-induction measured up to 240 mins by GC/MS analysis. The format is functional, organism-based. The arrangement: dose 20 mg/kg.
Data set [10] in a line: Solubility of the compound. The format is physicochemical.

As to `COc1ccc(N2C(=O)O/C(=C\c3cc(Cl)c(O)c(Cl)c3)C2=O)cc1`, the inhibition entry in data set [1] and in data set [2] was “inactive” in each case. For the same compound, the result in [3], in data set [4], in data set [5], in data set [6], in data set [7] and in [8] was inactive. In addition, the IC50 result in data set [9] was “Not Active”.

Regarding `CC(=O)O[C@H]1CC[C@@]2(C)C(=CC[C@@H]3[C@@H]2CC[C@]2(C)C(c4cccnc4)=CC[C@@H]32)C1`, the inhibition result in the data set with Rattus norvegicus was “Active”.

In the case of `COc1ccc(N2C(=O)/C(=C/c3ccc(O)c(Br)c3)OC2=S)cc1`, the inhibition result in [1] and in [2] was “inactive” throughout. In addition, the outcome in [3], in data set [4], in [5], in [6], in data set [7] and in data set [8] was inactive. Besides, the solubility – broadly, the dissolved amount per volume that the medium holds – in data set [10] was below 1 µg/mL.

Regarding `O=C(O)c1ccc(N2C(=O)O/C(=C\c3ccc(O)c(Br)c3)C2=O)cc1`, the inhibition result in data set [1] and in [2] was “inactive” each time. The result in [3], in [4], in data set [5], in [6], in data set [7] and in data set [8] was inactive. Also, the IC50 entry in data set [9] is listed as “Not Active”.

In the case of `NS(=O)(=O)c1ccc(N2C(=O)O/C(=C\c3ccc(O)c(Br)c3)C2=O)cc1`, the inhibition entry in data set [1] and in data set [2] was “inactive” throughout. In addition, the result in [3], in data set [4], in data set [5], in data set [6], in data set [7] and in [8] was inactive. In addition, in data set [9], the IC50 result was “Not Active”.

Regarding `CN1CCC(N2C(=O)/C(=C/c3ccc(O)c(Br)c3)SC2=S)CC1`, the inhibition entry in data set [1] and in data set [2] was “inactive” in each case. In addition, the result in data set [3], in data set [4], in data set [5], in [6], in data set [7] and in [8] was inactive. Moreover, in data set [9], the IC50 entry was “Not Active”.

In the case of `COc1ccc(N2C(=O)O/C(=C\c3ccc(O)c(C(=O)O)c3)C2=O)cc1`, the inhibition result in data set [1] and in data set [2] was “inactive” throughout. Also, the outcome in data set [3], in data set [4], in data set [5], in data set [6], in data set [7] and in data set [8] was inactive. The IC50 result in data set [9] is “Not Active”.
